The text below walks through data of patent US6987105B2, “Synthesis and use of thienotriazolodiazepines” (Board of Supervisors of Louisiana State University And …, priority 2000, dated 2006).

Test [1] deals with PAF binding sites of microsomal membranes. As to conditions: cited from earlier work.
For test [2], the system named is middle cerebral artery occlusion and reperfusion. Put plainly: middle cerebral artery occlusion (MCAO) and reperfusion stroke model. The test is classed as in vivo, mice (C57BL/6). An excerpt: To study the properties of LAU-8080 in an animal model of stroke, the technique of occluding the middle cerebral artery (middle cerebral artery occlusion, “MCAO”) which has been adapted to the mouse was used. The mouse middle cerebral artery occlusion is a well-recognized model of focal stroke as neuronal damage occurs when ischemia-reperfusion damages the brain. Adult male mice (C57BL/6) weighing 22-25 grams were induced to anesthesia with 1/70/30% halothane/nitrous oxide/oxygen, on a temperature controlled blanket. A line of PAF-R deficient mice (PAF receptor Knock-out mice), as described in S. Ishi et al., “Impaired anaphylactic responses with intact sensitivity to endotoxin in mice lacking a platelet-activating factor,” J. Exp. Med., vol. 187, pp. 1779-1788 (1998), was also used. The common carotid and external carotid arteries were exposed and dissected from surrounding tissue; the right external carotid artery was ligated. The right common carotid was temporarily occluded. A small arteriotomy to the external carotid artery was made so the occluding filament was introduced and advanced to the common carotid artery, and redirected into the internal carotid artery. The filament was advanced so that the blunted tip was placed in the anterior cerebral artery and the side of the filament occluded the origin of the middle cerebral artery. The common carotid artery was gently released, restoring blood flow to the carotid system. The wound was inspected for bleeding. All retracting sutures were removed, and the wound was closed. The anesthetic gases were stopped, and the animal was given oxygen until fully awake, then returned to his cage. After 60 minutes of occlusion, animals were reperfused by removal occluding filament. Animals were placed under anesthesia again, the occluding suture was delicately withdrawn from the arterial lumen, restoring blood flow to the territory of the middle cerebral artery. The wound was closed by interrupted silk sutures. The anesthetic gases were stopped, and the animal was given oxygen until fully awake.
The treated animals received a single i.p. injection of LAU-8080 (30 mg/kg) at 1 hour after reperfusion started, and control animals received vehicle injection (2-hydroxypropyl-β-cyclodextrin).
Scores were collected according Bederson's classification: a score of “0” indicates the animal moved freely changing directions. […]
(§1) Volumetric changes in infarcted brain regions in mice after 1 hour MCAO and 24-48 hours reperfusion was obtained by staining brain slices 1 mm thick with 2% 2,3,5-triphenyltetrazolium chloride (TTC). Quantitative analysis of the volume of the infarcted area was obtained by image-analysis.

In test [3] the test system is PAF binding site of the synaptosomal, plasma membrane. As to conditions: cited from earlier work.
Test [4] relates to photoreceptor cells. Put plainly: light-induced retina damage model (bright light-treated photoreceptors). The test is classed as in vivo, Sprague-Dawley rats. As to conditions: rat, 30 mg/kg i.p. pretreatment. As to the method:
The light-induced retina damage model selectively promotes the killing of photoreceptor cells as it occurs in age-related macular degeneration and retinitis pigmentosa.
Sprague-Dawley rats (150-175 g males) were dark adapted for 3 days. Two hours before light treatment they were injected i.p. with LAU-8080 (30 mg/kg) suspended in a vehicle (cyclo-dextrin) or just vehicle. A third group received no injection. Rats were placed in 5 inch diameter cylindrical lucite tubes which were then placed within an 8-light array of 10 inch diameter fluorescent lights (40 Watt, G.E. cool white; 350 μE/m^2·s; 25 klux) for up to 5 hours. After 10 days in darkness, eyes were collected and prepared for histology. […] The profile of the photoreceptor nuclear layer of the light+vehicle, light+vehicle+LAU-8080, and dark rat retinas were compared. The percent cell loss under each condition was calculated against the dark animal controls.

In test [5] the test system is middle cerebral artery occlusion and reperfusion. Put plainly: MCAO and reperfusion stroke model in PAF receptor Knock-out mice. The test is classed as in vivo, PAF-R deficient mice (PAF receptor Knock-out mice).
Excerpt: To study the properties of LAU-8080 in an animal model of stroke, the technique of occluding the middle cerebral artery (middle cerebral artery occlusion, “MCAO”) which has been adapted to the mouse was used. The mouse middle cerebral artery occlusion is a well-recognized model of focal stroke as neuronal damage occurs when ischemia-reperfusion damages the brain. Adult male mice (C57BL/6) weighing 22-25 grams were induced to anesthesia with 1/70/30% halothane/nitrous oxide/oxygen, on a temperature controlled blanket. A line of PAF-R deficient mice (PAF receptor Knock-out mice), as described in S. Ishi et al., “Impaired anaphylactic responses with intact sensitivity to endotoxin in mice lacking a platelet-activating factor,” J. Exp. Med., vol. 187, pp. 1779-1788 (1998), was also used. The common carotid and external carotid arteries were exposed and dissected from surrounding tissue; the right external carotid artery was ligated. The right common carotid was temporarily occluded. […]
as §1

In test [6] the test system is angiogenesis in the mouse cornea. Put plainly: mouse corneal micropocket assay (PAF-induced angiogenesis). The test is classed as in vivo, mice. The source says: The mouse corneal micropocket assay according to the procedure of B. M. Kenyon et al., “A model of angiogenesis in the mouse cornea,” Invest. Ophthalmol. Vis. Sci. vol. 37, pp. 1625-1632 (1996), was used to test whether LAU-8080 would inhibit angiogenesis.
Mouse corneal micropocket assay: Corneal micropockets were created with a modified von Graefe knife in both eyes of 5- to 6-weeks old mice. Pellets containing vehicle of 0.1% BSA in PBS with 12% polyhydroxyethylmetacrylate (Hydron) were implanted in the corneas at 1 mm from the limbus of the mice for a control. For the PAF experiment, 500 ng cPAF was added to the pellet with vehicle. For the PAF-LAU experiment, mice were implanted with Hydron pellets containing 0.1% BSA in PBS, 500 ng CPAF, and then treated with the PAF antagonist LAU-8080 (30 μg/g body weight), i.p., once a day. Six days later, corneal pictures were taken under the microscope and vessel length and clock hours of circumferential neovascularization were measured.

Turning to `COc1ccc(NC(=S)N2CCc3c(sc4c3C(c3ccccc3Cl)=NCc3nnc(C)n3-4)C2)cc1` [LAU-8080, 6-(2-chlorophenyl)-9-[(4-methoxyphenyl)thiocarbamoyl]-1-methyl-7,8,9,10-tetrahydro-4H-pyrido[4′,3′:4,5]thieno[3,2-f]-1,2,4-triazolo[4,3-a]-1,4-diazepine], the “displacement of PAF” value in test [1] is “displace PAF from microsomal membranes”; in test [3] it was “not from the synaptosomal, plasma membrane”. Further, the “neurological scores (Bederson's classification)” value in test [2] (30 mg/kg i.p. 1 hour after reperfusion, noticeable 24 hours after reperfusion) is given as “significative improvement”. The infarct volume result in test [2] (1 hour MCAO and 48 hours reperfusion, injection 1 hour after reperfusion onset, p<0.0026) is “significant reduction”; in test [5] (PAF receptor Knock-out mice), “small reduction”. Further, the survival is 35% in test [2] (1 hour MCAO, single i.p. 30 mg/kg 1 hour after onset of reperfusion, followed-up 14 days, n=20, p<0.04 vs vehicle) and “significative protection” in test [5] (PAF knock-out mice, injection one hour after reperfusion, p<0.0074). In test [2] (MCAO mice), the “effect of injection at different times during the procedure versus 1 hour after reperfusion” value is listed as “did not differ significantly”. In addition, in test [4], the “cell loss in an area near the center of the photodamage region” value is “complete lack of cell loss”. In test [4], the “depth of photoreceptor nuclear layer” value worked out at 12 cells deep. In test [6] (500 ng cPAF pellet, LAU-8080 30 μg/g body weight i.p. once a day, 6 days, p<0.05), the “angiogenesis (vessel length and clock hours of circumferential neovascularization)” value was “significantly reduced”.
In the case of “1-O-alkyl-2-acetyl-sn-glycero-3-phosphocholine [PAF, reference compound]”, in test [6] (pellet with 500 ng cPAF, 6 days after implantation, versus vehicle pellet), the “angiogenesis (vessel length and clock hours) induced by pellet” value is on record as “strongly induced”.
